Measurements published in ChEMBL document CHEMBL1201862, “PubChem BioAssay data set” (2004).
Activity calls are given as the source filed them.

Columns and labels:
[1] = target: T1, Polyadenylate-binding protein 1 (Homo sapiens, UniProt P11940); test: PABP1 MLLE–PAM2 binding inhibitor potency, dose response, biochemical, fluorescence polarization, FITC-PAM2 peptide (AID 602259); type: functional; conditions: read-out: IC50_Mean
[2] = target: T2, Mannose-6-phosphate isomerase (Homo sapiens, UniProt P34949); test: human PMI inhibitors, high substrate, primary screen, biochemical, fluorescence intensity, high mannose 6-phosphate (AID 1220)
T2 sequence (P34949 whole entry): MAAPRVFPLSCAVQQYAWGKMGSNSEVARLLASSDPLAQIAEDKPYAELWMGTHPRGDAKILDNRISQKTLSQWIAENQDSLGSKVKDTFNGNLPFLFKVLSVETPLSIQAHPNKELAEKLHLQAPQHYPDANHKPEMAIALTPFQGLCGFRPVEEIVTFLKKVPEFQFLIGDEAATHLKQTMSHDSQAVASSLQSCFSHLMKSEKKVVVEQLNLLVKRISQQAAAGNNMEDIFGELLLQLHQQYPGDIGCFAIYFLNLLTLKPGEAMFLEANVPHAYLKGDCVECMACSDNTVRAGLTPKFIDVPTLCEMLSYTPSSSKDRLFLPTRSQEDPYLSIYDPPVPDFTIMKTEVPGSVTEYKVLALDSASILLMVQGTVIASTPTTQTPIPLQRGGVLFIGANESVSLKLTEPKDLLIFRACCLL

[3] = target: T1, Polyadenylate-binding protein 1; test: PABP1 MLLE–PAM2 interaction inhibitors, dose response, miRNA deadenylation inhibitor project, biochemical, fluorescence polarization, Cy5-PAM2 peptide, secondary (AID 602260); type: functional; conditions: read-out: IC50_Mean
[4] = target: Nonstructural protein 1 (Influenza A virus, UniProt Q194T2); type: functional, Influenza A virus (A/California/07/2009(H1N1))
Chain of Nonstructural protein 1 (Q194T2 whole entry, canonical isoform): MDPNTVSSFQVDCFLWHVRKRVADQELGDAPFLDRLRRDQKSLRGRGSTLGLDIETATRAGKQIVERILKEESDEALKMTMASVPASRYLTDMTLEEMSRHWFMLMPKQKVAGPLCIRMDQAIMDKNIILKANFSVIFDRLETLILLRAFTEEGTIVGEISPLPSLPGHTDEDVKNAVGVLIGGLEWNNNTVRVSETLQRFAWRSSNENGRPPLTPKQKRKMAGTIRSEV

[5] = target: T3, Low molecular weight phosphotyrosine protein phosphatase (Homo sapiens, UniProt P24666); test: LMPTP phosphatase inhibitors, colorimetric pNPP readout, dose response, orthogonal assay, biochemical, absorbance, pNPP substrate, LMPTP-A isoform, set 2 (AID 743308); type: functional
T3 sequence (P24666 whole entry): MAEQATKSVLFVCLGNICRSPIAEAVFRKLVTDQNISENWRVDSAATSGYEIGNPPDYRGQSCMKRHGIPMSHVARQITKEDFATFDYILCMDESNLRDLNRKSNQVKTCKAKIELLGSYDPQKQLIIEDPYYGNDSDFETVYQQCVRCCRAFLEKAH

[6] = target: T3, Low molecular weight phosphotyrosine protein phosphatase; test: LMPTP phosphatase inhibitors, dose response, biochemical, OMFP substrate, fluorescence intensity, set 2 (AID 743307); type: functional
[7] = test system: Vero; test: West Nile virus antiviral activity, cell-based, CPE readout (AID 1621); type: functional; conditions: Chlorocebus sabaeus
[8] = target: T4, Estrogen receptor (Homo sapiens, UniProt P03372);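 further: potency for inhibiting coactivator peptide recruitment to the receptor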
T4 sequence (P03372 whole entry): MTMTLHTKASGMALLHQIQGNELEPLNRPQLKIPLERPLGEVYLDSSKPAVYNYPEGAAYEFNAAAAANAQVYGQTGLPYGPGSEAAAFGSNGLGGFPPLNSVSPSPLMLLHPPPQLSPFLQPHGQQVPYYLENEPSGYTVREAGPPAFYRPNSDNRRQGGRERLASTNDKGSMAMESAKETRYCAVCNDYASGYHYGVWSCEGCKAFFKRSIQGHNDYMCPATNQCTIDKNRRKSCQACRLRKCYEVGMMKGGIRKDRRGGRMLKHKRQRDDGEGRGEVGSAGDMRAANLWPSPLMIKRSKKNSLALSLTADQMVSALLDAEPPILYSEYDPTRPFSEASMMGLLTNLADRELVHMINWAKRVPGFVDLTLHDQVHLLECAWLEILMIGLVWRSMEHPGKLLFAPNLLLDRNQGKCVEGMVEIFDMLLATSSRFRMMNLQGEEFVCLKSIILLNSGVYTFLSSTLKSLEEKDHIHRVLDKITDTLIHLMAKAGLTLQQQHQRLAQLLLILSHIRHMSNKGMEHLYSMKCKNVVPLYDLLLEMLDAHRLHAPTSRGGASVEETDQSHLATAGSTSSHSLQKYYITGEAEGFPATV

[9] = target: T5, Carboxy-terminal domain RNA polymerase II polypeptide A small phosphatase 1 (Homo sapiens, UniProt Q9GZU7); test: inhibitors of CTDSP1, concentration-response testing, biochemical assay, absorbance-based, actives from ultra-high-throughput screening (AID 540297); type: functional
T5 sequence (Q9GZU7 whole entry): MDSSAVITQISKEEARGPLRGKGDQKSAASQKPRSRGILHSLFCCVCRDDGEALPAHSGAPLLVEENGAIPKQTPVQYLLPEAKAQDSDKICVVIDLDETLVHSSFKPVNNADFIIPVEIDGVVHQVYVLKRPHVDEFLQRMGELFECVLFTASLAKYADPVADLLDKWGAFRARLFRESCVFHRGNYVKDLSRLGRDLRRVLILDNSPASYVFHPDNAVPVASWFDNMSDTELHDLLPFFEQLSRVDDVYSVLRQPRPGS

[10] = Counterscreen for IDE inhibitors: Luminescence-based cell-based high throughput dose response assay to identify compounds that are cytotoxic to HEK cells. [Related pubchem assays: 434962 (Primary screen (IDE inhibitors in singlicate)), 449730 (Counterscreen (Cytotoxicity in triplicate)), 435028 (Confirmation (IDE inhibitors in triplicate)) …; type: functional; conditions: HEK293
[11] = target: Insulin-degrading enzyme (Homo sapiens, UniProt P14735); test: Dose Response: Fluorescence polarization-based cell-based high throughput dose response assay for inhibitors of insulin-degrading enzyme (IDE). [Related pubchem assays: 434962 (Primary screen (IDE inhibitors in singlicate)), 449730 (Counterscreen (Cytotoxicity in triplicate)), 435028 (Confirmation (IDE inhibitors in triplicate)), 434984 (Summary …; type: functional
Chain of Insulin-degrading enzyme (P14735 whole entry): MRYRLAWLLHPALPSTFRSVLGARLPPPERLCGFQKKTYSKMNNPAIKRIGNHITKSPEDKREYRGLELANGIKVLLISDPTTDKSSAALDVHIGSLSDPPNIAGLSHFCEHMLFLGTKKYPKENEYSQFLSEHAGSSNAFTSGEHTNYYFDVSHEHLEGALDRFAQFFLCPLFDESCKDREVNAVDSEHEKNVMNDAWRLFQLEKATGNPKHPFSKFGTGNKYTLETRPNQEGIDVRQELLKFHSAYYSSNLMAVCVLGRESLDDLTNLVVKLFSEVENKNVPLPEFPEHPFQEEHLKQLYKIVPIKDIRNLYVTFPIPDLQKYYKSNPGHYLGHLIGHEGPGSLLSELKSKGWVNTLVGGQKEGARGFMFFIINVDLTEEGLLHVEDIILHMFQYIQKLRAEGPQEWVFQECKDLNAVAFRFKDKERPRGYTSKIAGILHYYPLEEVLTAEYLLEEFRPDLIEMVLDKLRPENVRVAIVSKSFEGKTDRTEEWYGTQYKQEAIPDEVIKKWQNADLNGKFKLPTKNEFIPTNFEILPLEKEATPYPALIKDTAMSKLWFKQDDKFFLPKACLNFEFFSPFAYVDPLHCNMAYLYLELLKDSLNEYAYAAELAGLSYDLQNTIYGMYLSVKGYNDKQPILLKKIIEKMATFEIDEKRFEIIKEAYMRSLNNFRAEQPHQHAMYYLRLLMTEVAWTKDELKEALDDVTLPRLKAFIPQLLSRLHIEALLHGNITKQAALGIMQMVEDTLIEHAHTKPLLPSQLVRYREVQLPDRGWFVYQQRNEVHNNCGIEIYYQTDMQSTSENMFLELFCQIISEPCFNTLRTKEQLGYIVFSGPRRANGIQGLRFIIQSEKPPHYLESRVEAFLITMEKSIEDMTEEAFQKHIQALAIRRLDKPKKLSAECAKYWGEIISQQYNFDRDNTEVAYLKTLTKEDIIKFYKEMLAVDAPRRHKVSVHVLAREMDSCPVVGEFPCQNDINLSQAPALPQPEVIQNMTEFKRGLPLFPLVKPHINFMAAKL

[12] = target: Genome polyprotein (dengue virus type 2, UniProt P29990); test: Dengue-2 NS5 methyltransferase inhibitors, primary screen, biochemical, confirmation dose response (AID 588689); type: functional
Chain of Genome polyprotein (P29990 2492-3391 limits assumed): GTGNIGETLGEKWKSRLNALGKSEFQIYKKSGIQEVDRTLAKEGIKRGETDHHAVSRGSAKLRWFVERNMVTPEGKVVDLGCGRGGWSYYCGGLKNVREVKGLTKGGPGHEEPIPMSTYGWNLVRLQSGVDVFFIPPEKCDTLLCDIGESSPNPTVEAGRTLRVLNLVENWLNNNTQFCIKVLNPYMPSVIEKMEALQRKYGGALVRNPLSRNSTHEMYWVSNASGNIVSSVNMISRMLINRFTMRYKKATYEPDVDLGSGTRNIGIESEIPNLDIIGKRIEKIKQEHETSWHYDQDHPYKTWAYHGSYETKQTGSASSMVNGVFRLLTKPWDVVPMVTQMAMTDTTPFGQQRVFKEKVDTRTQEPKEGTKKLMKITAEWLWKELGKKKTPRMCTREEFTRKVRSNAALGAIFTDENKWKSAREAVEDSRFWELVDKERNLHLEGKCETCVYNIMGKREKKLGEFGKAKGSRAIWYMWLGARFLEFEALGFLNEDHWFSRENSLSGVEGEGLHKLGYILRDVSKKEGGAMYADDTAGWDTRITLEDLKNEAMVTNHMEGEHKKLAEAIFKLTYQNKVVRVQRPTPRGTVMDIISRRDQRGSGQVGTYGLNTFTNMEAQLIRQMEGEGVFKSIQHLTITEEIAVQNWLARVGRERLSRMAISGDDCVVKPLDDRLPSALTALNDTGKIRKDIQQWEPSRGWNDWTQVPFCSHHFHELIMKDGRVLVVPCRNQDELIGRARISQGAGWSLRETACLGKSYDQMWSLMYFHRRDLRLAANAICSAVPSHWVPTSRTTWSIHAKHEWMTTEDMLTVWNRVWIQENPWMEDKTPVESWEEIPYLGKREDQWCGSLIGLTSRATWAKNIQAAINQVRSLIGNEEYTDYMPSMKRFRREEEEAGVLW

[13] = test system: CHO; test: cytotoxicity in TLR9-MyD88 CHO cells, dose response, cytotoxicity control for TLR9-MyD88 binding inhibitor project, cell-based, luminescence (AID 588339); type: functional, hamster; conditions: Cricetulus griseus;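 further: CHO cells stably coexpressing TLR9 and MyD88 fusions from primary screen; compound exposure lasted 48 hours before viability readout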
[14] = target: Beta Lactamase (Pseudomonas aeruginosa, UniProt Q932Y6); test: beta-lactamase reporter inhibitor potency, dose response, artefact control for TLR9-MyD88 binding inhibitor project, BLA reporter cells, FRET fluorescence (AID 588341); type: cell-based;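 further: cell based assay in CHO-K1 cells stably expressing beta-lactamase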
Chain of Beta Lactamase (Q932Y6 whole entry): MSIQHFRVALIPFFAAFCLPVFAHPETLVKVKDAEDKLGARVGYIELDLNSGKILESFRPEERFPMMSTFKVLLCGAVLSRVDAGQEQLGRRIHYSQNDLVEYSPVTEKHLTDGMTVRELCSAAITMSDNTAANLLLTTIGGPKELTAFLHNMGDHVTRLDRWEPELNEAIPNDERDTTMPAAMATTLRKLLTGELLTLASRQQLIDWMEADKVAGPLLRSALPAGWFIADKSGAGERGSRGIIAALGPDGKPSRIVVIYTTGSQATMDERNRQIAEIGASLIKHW

[15] = target: T6, Hexokinase HKDC1 (Homo sapiens, UniProt Q2TB90); test: HKDC1 hexokinase inhibitors, dose response, biochemical, W721R variant (AID 504729); type: functional
T6 sequence (Q2TB90 whole entry): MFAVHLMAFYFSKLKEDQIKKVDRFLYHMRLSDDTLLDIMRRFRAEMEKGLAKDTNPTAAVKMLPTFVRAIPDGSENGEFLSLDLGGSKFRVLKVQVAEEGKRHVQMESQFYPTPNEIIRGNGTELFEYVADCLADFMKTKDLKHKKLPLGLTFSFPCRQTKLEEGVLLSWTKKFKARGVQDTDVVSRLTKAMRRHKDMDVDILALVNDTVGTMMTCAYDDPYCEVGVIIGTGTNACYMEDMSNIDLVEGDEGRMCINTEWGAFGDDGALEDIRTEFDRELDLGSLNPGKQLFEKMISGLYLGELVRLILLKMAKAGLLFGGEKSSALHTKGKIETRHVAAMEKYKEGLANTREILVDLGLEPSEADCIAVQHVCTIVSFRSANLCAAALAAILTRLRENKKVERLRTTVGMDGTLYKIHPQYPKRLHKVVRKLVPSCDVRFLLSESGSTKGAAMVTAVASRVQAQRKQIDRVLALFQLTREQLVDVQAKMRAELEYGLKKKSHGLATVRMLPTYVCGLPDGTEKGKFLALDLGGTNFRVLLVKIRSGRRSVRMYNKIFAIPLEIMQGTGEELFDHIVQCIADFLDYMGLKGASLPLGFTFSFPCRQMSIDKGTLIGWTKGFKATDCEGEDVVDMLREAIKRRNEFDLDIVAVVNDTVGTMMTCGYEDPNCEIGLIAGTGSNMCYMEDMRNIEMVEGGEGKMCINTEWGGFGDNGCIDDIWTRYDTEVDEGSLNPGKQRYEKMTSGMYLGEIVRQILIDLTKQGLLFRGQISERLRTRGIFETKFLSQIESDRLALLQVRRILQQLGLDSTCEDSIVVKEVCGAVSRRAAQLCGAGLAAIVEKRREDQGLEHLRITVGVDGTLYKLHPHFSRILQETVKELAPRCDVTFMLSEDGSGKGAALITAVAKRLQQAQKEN

[16] = target: T7, Histone-lysine N-methyltransferase NSD2 (Homo sapiens, UniProt O96028); type: biochemical
T7 sequence (O96028 whole entry): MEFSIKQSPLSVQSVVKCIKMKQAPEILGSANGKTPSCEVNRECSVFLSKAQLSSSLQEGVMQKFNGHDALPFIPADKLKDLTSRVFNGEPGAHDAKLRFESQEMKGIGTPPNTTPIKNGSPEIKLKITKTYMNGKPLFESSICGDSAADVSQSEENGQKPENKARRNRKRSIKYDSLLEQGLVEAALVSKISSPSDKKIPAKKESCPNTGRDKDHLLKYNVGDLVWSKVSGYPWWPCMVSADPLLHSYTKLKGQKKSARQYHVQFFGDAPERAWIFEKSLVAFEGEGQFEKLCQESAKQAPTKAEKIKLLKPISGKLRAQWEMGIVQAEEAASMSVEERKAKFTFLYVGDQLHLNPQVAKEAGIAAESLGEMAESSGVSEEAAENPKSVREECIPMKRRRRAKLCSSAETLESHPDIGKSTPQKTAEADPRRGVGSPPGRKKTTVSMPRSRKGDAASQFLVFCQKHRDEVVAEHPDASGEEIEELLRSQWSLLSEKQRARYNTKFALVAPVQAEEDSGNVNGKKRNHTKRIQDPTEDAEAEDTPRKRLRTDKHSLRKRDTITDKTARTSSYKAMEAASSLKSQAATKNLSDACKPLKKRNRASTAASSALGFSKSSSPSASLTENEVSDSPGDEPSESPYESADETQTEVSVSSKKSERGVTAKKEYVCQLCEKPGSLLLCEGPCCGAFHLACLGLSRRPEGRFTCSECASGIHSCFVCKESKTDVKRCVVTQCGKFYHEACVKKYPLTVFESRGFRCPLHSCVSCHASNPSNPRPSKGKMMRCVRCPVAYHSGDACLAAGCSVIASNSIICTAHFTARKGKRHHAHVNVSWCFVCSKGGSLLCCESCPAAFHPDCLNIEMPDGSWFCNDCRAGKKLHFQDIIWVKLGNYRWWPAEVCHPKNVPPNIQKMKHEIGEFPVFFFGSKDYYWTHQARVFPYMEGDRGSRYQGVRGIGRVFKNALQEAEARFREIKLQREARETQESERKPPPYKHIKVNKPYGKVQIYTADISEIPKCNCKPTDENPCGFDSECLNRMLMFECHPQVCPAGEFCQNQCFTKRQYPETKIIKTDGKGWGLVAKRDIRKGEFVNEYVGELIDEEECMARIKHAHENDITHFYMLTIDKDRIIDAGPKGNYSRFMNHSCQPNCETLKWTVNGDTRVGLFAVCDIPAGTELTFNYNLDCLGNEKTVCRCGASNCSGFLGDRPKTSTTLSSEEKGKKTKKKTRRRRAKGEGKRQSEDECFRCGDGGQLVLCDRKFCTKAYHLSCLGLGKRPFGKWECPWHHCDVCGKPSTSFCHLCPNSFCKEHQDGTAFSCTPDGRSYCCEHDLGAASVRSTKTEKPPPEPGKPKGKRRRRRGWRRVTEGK

[17] = target: Heat shock protein HSP 90-alpha (Homo sapiens, UniProt P07900); type: functional, organism-based
[18] = THP-1 cell cytotoxicity, dose response, cytotoxicity control for Vif-APOBEC3G degradation inhibitor project, THP-1 cells (AID 1117359); type: functional; conditions: Human immunodeficiency virus 1, THP-1
[19] = target: Wee1-like protein kinase (Homo sapiens, UniProt P30291); test: Dose Response Cell-based Assay for Inhibitors of Wee1 Degradation. [Related pubchem assays: 1410, 1321 ]; type: functional
Chain of Wee1-like protein kinase (P30291 whole entry): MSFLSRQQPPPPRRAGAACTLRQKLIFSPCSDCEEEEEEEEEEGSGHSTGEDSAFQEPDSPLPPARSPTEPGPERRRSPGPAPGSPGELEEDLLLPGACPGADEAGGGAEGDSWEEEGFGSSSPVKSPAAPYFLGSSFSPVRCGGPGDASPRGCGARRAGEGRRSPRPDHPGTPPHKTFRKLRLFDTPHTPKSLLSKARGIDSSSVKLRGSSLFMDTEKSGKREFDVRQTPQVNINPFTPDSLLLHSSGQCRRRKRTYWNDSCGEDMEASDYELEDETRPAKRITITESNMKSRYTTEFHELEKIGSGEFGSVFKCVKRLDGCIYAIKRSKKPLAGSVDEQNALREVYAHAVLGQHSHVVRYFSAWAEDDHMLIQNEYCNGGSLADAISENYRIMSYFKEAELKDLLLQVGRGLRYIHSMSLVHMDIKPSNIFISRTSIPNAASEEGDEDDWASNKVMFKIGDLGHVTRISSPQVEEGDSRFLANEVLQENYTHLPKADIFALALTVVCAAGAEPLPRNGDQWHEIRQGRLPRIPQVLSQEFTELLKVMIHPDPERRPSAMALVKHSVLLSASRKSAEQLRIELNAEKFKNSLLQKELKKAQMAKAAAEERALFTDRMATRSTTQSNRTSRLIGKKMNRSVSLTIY

[20] = target: G2/mitotic-specific cyclin-B1 (Homo sapiens, UniProt P14635); test: Counterscreen assay for inhibitors of Wee1 degradation: dose response cell-based assay to identify inhibitors of cyclin B degradation. [Related pubchem assays: 1410, 1321 ]; type: functional
Chain of G2/mitotic-specific cyclin-B1 (P14635 whole entry): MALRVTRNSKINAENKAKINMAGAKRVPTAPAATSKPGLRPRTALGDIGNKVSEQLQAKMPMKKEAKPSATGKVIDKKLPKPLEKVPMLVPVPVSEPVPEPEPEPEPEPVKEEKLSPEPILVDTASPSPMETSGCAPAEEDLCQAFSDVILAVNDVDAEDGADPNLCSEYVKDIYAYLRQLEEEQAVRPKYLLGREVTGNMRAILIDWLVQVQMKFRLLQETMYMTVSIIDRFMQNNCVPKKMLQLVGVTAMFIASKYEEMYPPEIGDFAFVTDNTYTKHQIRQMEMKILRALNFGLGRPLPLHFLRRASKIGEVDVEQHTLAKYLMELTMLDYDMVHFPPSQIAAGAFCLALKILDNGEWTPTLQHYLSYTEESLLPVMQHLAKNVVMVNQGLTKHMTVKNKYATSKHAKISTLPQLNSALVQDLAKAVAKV

T1 sequence (P11940 whole entry): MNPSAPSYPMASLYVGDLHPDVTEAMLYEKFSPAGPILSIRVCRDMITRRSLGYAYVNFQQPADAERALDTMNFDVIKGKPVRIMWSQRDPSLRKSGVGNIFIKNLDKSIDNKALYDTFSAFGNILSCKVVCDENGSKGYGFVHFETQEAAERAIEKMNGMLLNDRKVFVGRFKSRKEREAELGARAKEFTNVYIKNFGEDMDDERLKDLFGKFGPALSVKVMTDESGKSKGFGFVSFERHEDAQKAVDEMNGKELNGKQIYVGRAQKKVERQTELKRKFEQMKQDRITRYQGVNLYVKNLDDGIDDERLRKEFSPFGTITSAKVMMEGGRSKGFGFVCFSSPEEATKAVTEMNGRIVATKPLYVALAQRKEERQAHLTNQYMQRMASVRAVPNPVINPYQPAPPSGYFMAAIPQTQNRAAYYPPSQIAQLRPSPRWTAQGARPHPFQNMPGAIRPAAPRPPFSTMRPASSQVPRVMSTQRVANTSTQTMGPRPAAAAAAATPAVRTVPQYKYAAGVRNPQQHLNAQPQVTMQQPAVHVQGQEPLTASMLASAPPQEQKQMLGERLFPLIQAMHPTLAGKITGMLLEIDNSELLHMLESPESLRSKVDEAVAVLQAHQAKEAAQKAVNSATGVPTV

O=C(O)CNC(=O)CC1SC(NN=C2CSC(=O)N2)=NC1=O (stereo unspecified)
IC50 [1]: > 66 µM (inactive) | IC50 [2]: 46.3 µM (active) | IC50 [3]: > 66 µM (inactive) | IC50 [4]: 7.74 µM (active)

CCCCc1c(C)nc2ccc(Br)cc2c1SC(N)N
IC50 [2]: > 50 µM (not active)

Clc1ccccc1-c1cc(NCCCN2CCCCC2)c2ccccc2n1
IC50 [5]: 32.5 µM (inactive) | IC50 [6]: 11.6 µM (active)

Cc1ccc(C)c(CN2C(=O)c3ccccc3[S+]([O-])c3ccc(C(=O)NCCCN4CCCC4)cc32)c1 (stereo unspecified)
IC50 [7]: 22 µM (active)

Cc1sc2ncnc(SCC(=O)NC(=O)NCc3ccco3)c2c1C
IC50 [8]: 11.5 µM (active) | IC50 [9]: 10.6 µM (active)

Nc1c2c(nc3ccn(-c4ccccc4)c(=O)c13)CCCCC2
IC50 [10]: 22.3 µM (not active) | IC50 [11]: > 55.9 µM (not active)

CN(C)CCNS(=O)(=O)c1ccc(N2CCN(c3ccc(F)cc3)CC2)c([N+](=O)[O-])c1
IC50 [7]: 20 µM (active)

C=CCN(C(=O)COC(=O)c1cc[n+]([O-])cc1)c1nc(-c2ccccc2)cs1
IC50 [10]: 50.6 µM (not active) | IC50 [11]: 4.84 µM (active)

O=C1C(Cl)=C(Oc2ccccc2)C(=O)c2ccccc21
IC50 [12]: 4.63 µM (active) | IC50 [13]: 0.738 µM (active) | IC50 [14]: 10.2 µM (inactive) | IC50 [15]: 4.47 µM (active) | AC50 [16]: 0.598 µM (active) | AC50 [17]: 2.7 µM (active) | CC50 [18]: > 40 µM (active)

O/C(=C\c1nc2ccccc2nc1O)c1cccs1
EC50 [19]: > 49.7 µM (not active) | EC50 [20]: > 49.7 µM (not active)

c1ccc(-c2nc(NCCCN3CCCCC3)c3ccccc3n2)cc1
IC50 [5]: 38.6 µM (inactive) | IC50 [6]: 21.9 µM (inactive)
